This test deals with Chronic Constriction Injury model of ischiadic nerve (neuralgia). The settings on record: rat, in vivo.

Regarding `CN1CC[C@]23c4c5ccc(O)c4O[C@H]2[C@@H](O)C=C[C@H]3[C@H]1C5` [morphine, reference compound], the “analgesic effect on neuralgia” value was “no analgesic effect” and the “mechanical threshold after withdrawal” value is “no significant difference”.
